System: A375 multi-cell spheroids with HUVEC/MSC, viability
Assay: Anticancer human tumor A375 cell line growth inhibition [GQUAD];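 note: spheroids exposed to compounds for seven days before readout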
Details: for IC50: curve of first compound; for viability, T/C: stronger effect = lower value
Summary of the method: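 Multi-cell-type spheroids of tumor cells with HUVEC and mesenchymal stem cells, treated with drug combinations. Concentrations descend in half-log steps from near clinical Cmax, or from 10 microM where Cmax is unknown; viability read-out.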

[1] = second compound 0.0316 µM, first compound 0.0316 µM
[2] = second compound 0.0316 µM, first compound 0.1 µM
[3] = second compound 0.0316 µM, first compound 0.316 µM
[4] = second compound 0.0316 µM, first compound 1 µM
[5] = second compound 0.0316 µM, first compound 3.16 µM
[6] = second compound 0.0316 µM, first compound 10 µM
[7] = second compound 0.1 µM, first compound 0.0316 µM
[8] = second compound 0.1 µM, first compound 0.1 µM
[9] = second compound 0.1 µM, first compound 0.316 µM
[10] = second compound 0.1 µM, first compound 1 µM
[11] = second compound 0.1 µM, first compound 3.16 µM
[12] = second compound 0.1 µM, first compound 10 µM
[13] = second compound 0.316 µM, first compound 0.0316 µM
[14] = second compound 0.316 µM, first compound 0.1 µM
[15] = second compound 0.316 µM, first compound 0.316 µM
[16] = second compound 0.316 µM, first compound 1 µM
[17] = second compound 0.316 µM, first compound 3.16 µM
[18] = second compound 0.316 µM, first compound 10 µM
[19] = second compound 1 µM, first compound 0.0316 µM
[20] = second compound 1 µM, first compound 0.1 µM
[21] = second compound 1 µM, first compound 0.316 µM
[22] = second compound 1 µM, first compound 1 µM
[23] = second compound 1 µM, first compound 3.16 µM
[24] = second compound 1 µM, first compound 10 µM
[25] = second compound 3.16 µM, first compound 0.0316 µM
[26] = second compound 3.16 µM, first compound 0.1 µM
[27] = second compound 3.16 µM, first compound 0.316 µM
[28] = second compound 3.16 µM, first compound 1 µM
[29] = second compound 3.16 µM, first compound 3.16 µM
[30] = second compound 3.16 µM, first compound 10 µM
[31] = second compound 10 µM, first compound 0.0316 µM
[32] = second compound 10 µM, first compound 0.1 µM
[33] = second compound 10 µM, first compound 0.316 µM
[34] = second compound 10 µM, first compound 1 µM
[35] = second compound 10 µM, first compound 3.16 µM
[36] = second compound 10 µM, first compound 10 µM

COc1cccc2c1C(=O)c1c(O)c3c(c(O)c1C2=O)CC(O)(C(=O)CO)CC3OC1CC(N)C(O)C(C)O1 (stereo not given) + Cc1[nH]c2ccc(F)cc2c1-c1nc2c3cccnc3c3ncccc3c2[nH]1
IC50 (second compound 0.0316 µM): 271 nM | IC50 (second compound 0.1 µM): 216 nM | IC50 (second compound 0.316 µM): 286 nM | IC50 (second compound 1 µM): 251 nM | IC50 (second compound 3.16 µM): 288 nM | IC50 (second compound 10 µM): 326 nM | viability, T/C [1]: 101% | viability, T/C [2]: 90.8% | viability, T/C [3]: 38.9% | viability, T/C [4]: 20.5% | viability, T/C [5]: 2.15% | viability, T/C [6]: 0.1% | viability, T/C [7]: 103% | viability, T/C [8]: 74.5% | viability, T/C [9]: 35.2% | viability, T/C [10]: 19.8% | viability, T/C [11]: 2.23% | viability, T/C [12]: 0.08% | viability, T/C [13]: 110% | viability, T/C [14]: 89.2% | viability, T/C [15]: 41.3% | viability, T/C [16]: 22.7% | viability, T/C [17]: 3.01% | viability, T/C [18]: 0.09% | viability, T/C [19]: 99.3% | viability, T/C [20]: 82.8% | viability, T/C [21]: 38.7% | viability, T/C [22]: 18.7% | viability, T/C [23]: 3.16% | viability, T/C [24]: 0.1% | viability, T/C [25]: 68.2% | viability, T/C [26]: 60.1% | viability, T/C [27]: 49.4% | viability, T/C [28]: 21.3% | viability, T/C [29]: 0.45% | viability, T/C [30]: 0.13% | viability, T/C [31]: 71.9% | viability, T/C [32]: 72% | viability, T/C [33]: 48.9% | viability, T/C [34]: 20.9% | viability, T/C [35]: 1.35% | viability, T/C [36]: 0.22%

CC(C)(O)C1CCC(Nc2ccc3ncc(-c4cccc(C(F)(F)F)c4)n3n2)CC1 (stereo not given) + Cc1cnc(CNC(=O)c2c(=O)c3ccc(N4CCCN(C)CC4)nc3n3c2sc2ccccc23)cn1
IC50 (second compound 0.0316 µM): > 10000 nM | IC50 (second compound 0.1 µM): 1730 nM | IC50 (second compound 0.316 µM): 124 nM | IC50 (second compound 1 µM): < 31.6 nM | IC50 (second compound 3.16 µM): < 31.6 nM | IC50 (second compound 10 µM): < 31.6 nM | viability, T/C [1]: 104% | viability, T/C [2]: 110% | viability, T/C [3]: 103% | viability, T/C [4]: 96.1% | viability, T/C [5]: 65.3% | viability, T/C [6]: 91.2% | viability, T/C [7]: 85.9% | viability, T/C [8]: 79.5% | viability, T/C [9]: 78.2% | viability, T/C [10]: 54.5% | viability, T/C [11]: 41% | viability, T/C [12]: 49.1% | viability, T/C [13]: 55% | viability, T/C [14]: 53.4% | viability, T/C [15]: 45.5% | viability, T/C [16]: 38.8% | viability, T/C [17]: 31.7% | viability, T/C [18]: 29.7% | viability, T/C [19]: 38.5% | viability, T/C [20]: 40.9% | viability, T/C [21]: 38% | viability, T/C [22]: 31.4% | viability, T/C [23]: 27.6% | viability, T/C [24]: 25% | viability, T/C [25]: 32.5% | viability, T/C [26]: 35.4% | viability, T/C [27]: 33% | viability, T/C [28]: 26.3% | viability, T/C [29]: 17.5% | viability, T/C [30]: 23.8% | viability, T/C [31]: 29.4% | viability, T/C [32]: 27.5% | viability, T/C [33]: 28.9% | viability, T/C [34]: 21.2% | viability, T/C [35]: 8.8% | viability, T/C [36]: 0.26%

O=c1[nH]cc(F)c(=O)[nH]1 + Cc1[nH]c2ccc(F)cc2c1-c1nc2c3cccnc3c3ncccc3c2[nH]1
IC50 (second compound 0.0316 µM): > 10000 nM | IC50 (second compound 0.1 µM): > 10000 nM | IC50 (second compound 0.316 µM): > 10000 nM | IC50 (second compound 1 µM): > 10000 nM | IC50 (second compound 3.16 µM): > 10000 nM | IC50 (second compound 10 µM): > 10000 nM | viability, T/C [1]: 102% | viability, T/C [2]: 99% | viability, T/C [3]: 109% | viability, T/C [4]: 105% | viability, T/C [5]: 97.9% | viability, T/C [6]: 92.9% | viability, T/C [7]: 106% | viability, T/C [8]: 93.2% | viability, T/C [9]: 105% | viability, T/C [10]: 114% | viability, T/C [11]: 103% | viability, T/C [12]: 101% | viability, T/C [13]: 96% | viability, T/C [14]: 92.9% | viability, T/C [15]: 102% | viability, T/C [16]: 95.2% | viability, T/C [17]: 112% | viability, T/C [18]: 103% | viability, T/C [19]: 101% | viability, T/C [20]: 103% | viability, T/C [21]: 111% | viability, T/C [22]: 97.6% | viability, T/C [23]: 115% | viability, T/C [24]: 102% | viability, T/C [25]: 83.9% | viability, T/C [26]: 90.9% | viability, T/C [27]: 93.6% | viability, T/C [28]: 88.4% | viability, T/C [29]: 101% | viability, T/C [30]: 80.3% | viability, T/C [31]: 88.2% | viability, T/C [32]: 81.6% | viability, T/C [33]: 111% | viability, T/C [34]: 104% | viability, T/C [35]: 96.3% | viability, T/C [36]: 77.4%

CC(=O)O[C@H]1C(=O)[C@@]2(C)[C@H]([C@H](OC(=O)c3ccccc3)[C@]3(O)C[C@H](OC(=O)[C@H](O)[C@@H](NC(=O)c4ccccc4)c4ccccc4)C(C)=C1C3(C)C)[C@]1(OC(C)=O)CO[C@@H]1C[C@@H]2O + CN(C)c1ccc(Nc2c3ccc(NC(=O)CCN4CCCC4)cc3nc3cc(NC(=O)CCN4CCCC4)ccc23)cc1
IC50 (second compound 0.0316 µM): 61.2 nM | IC50 (second compound 0.1 µM): 61.3 nM | IC50 (second compound 0.316 µM): 61 nM | IC50 (second compound 1 µM): 61.7 nM | IC50 (second compound 3.16 µM): 65.2 nM | IC50 (second compound 10 µM): 55.5 nM | viability, T/C [1]: 86.3% | viability, T/C [2]: 23.1% | viability, T/C [3]: 12.3% | viability, T/C [4]: 11% | viability, T/C [5]: 11.4% | viability, T/C [6]: 10.6% | viability, T/C [7]: 86.5% | viability, T/C [8]: 23% | viability, T/C [9]: 12.1% | viability, T/C [10]: 13.2% | viability, T/C [11]: 11.7% | viability, T/C [12]: 12.9% | viability, T/C [13]: 88.1% | viability, T/C [14]: 21.3% | viability, T/C [15]: 12.2% | viability, T/C [16]: 10.6% | viability, T/C [17]: 12.8% | viability, T/C [18]: 15% | viability, T/C [19]: 87.5% | viability, T/C [20]: 23% | viability, T/C [21]: 10.2% | viability, T/C [22]: 12.8% | viability, T/C [23]: 10.4% | viability, T/C [24]: 12.9% | viability, T/C [25]: 95.4% | viability, T/C [26]: 23.2% | viability, T/C [27]: 11.7% | viability, T/C [28]: 10.7% | viability, T/C [29]: 11.6% | viability, T/C [30]: 11.9% | viability, T/C [31]: 76.8% | viability, T/C [32]: 22% | viability, T/C [33]: 13.3% | viability, T/C [34]: 11.7% | viability, T/C [35]: 10.9% | viability, T/C [36]: 12.4%

CC(C)n1c(=O)n(C)c2cnc3cc(F)c(-c4ccc(OCCCN5CCCCC5)nc4)cc3c21 + Cc1[nH]c2ccc(F)cc2c1-c1nc2c3cccnc3c3ncccc3c2[nH]1
IC50 (second compound 0.0316 µM): > 10000 nM | IC50 (second compound 0.1 µM): > 10000 nM | IC50 (second compound 0.316 µM): > 10000 nM | IC50 (second compound 1 µM): > 10000 nM | IC50 (second compound 3.16 µM): 5040 nM | IC50 (second compound 10 µM): 9550 nM | viability, T/C [1]: 92.3% | viability, T/C [2]: 93.3% | viability, T/C [3]: 91.1% | viability, T/C [4]: 96.3% | viability, T/C [5]: 109% | viability, T/C [6]: 91.1% | viability, T/C [7]: 98.2% | viability, T/C [8]: 89.7% | viability, T/C [9]: 97.2% | viability, T/C [10]: 95.9% | viability, T/C [11]: 113% | viability, T/C [12]: 96.3% | viability, T/C [13]: 92.5% | viability, T/C [14]: 91.8% | viability, T/C [15]: 112% | viability, T/C [16]: 96.7% | viability, T/C [17]: 106% | viability, T/C [18]: 90% | viability, T/C [19]: 89.9% | viability, T/C [20]: 98.1% | viability, T/C [21]: 97.8% | viability, T/C [22]: 96% | viability, T/C [23]: 116% | viability, T/C [24]: 93.7% | viability, T/C [25]: 83.5% | viability, T/C [26]: 80.2% | viability, T/C [27]: 92.7% | viability, T/C [28]: 73% | viability, T/C [29]: 65.2% | viability, T/C [30]: 29.3% | viability, T/C [31]: 106% | viability, T/C [32]: 101% | viability, T/C [33]: 101% | viability, T/C [34]: 88.4% | viability, T/C [35]: 81.2% | viability, T/C [36]: 47.7%
